Data published in patent US20040259875A1, “Amine derivatives” (priority 2001, published 2004).

Test system: not given
Experiment: not given
Conditions: not given

| SMILES | melting point |
| --- | --- |
| COc1ccc(CNC(=O)Nc2c(Cl)cc(Cl)c3ccc(O)cc23)cc1 [Example 1-31] | 223 to 226 °C |
| O=C(Nc1ccc(Oc2ccc(Cl)cc2)cc1)Nc1c(Cl)cc(Cl)c2ccc(O)cc12 [Example 4-9] | 230 °C |
| O=C(Nc1ccc(Cl)c(C(F)(F)F)c1)Nc1c(Br)cc(Br)c2ccc(O)cc12 [Example 1-4] | 242 to 243 °C |
| CC(C)c1ccc(NC(=O)Nc2cccc3cc(O)ccc23)cc1 [Example 1-139] | 207.5 °C |
| Cc1ccc(-c2cccc(NC(=O)Nc3c(Cl)cc(Cl)c4ccc(O)cc34)c2)cc1Cl [Example 4-18] | 234 °C (dec.) |
| O=C(Nc1c(Cl)cc(Cl)c2ccc(O)cc12)NC1CCCc2ccccc21 (stereo not shown) [Example 4-13] | 238 °C (dec.) |
| O=C(Nc1cccc(-c2ccccc2Cl)c1)Nc1c(Cl)cc(Cl)c2ccc(O)cc12 [Example 4-3] | 228 to 232 °C |
| CC(=O)c1ccc(-c2cccc(NC(=O)Nc3c(Cl)cc(Cl)c4ccc(O)cc34)c2)cc1 [Example 4-10] | 253 °C |
| O=C(Nc1ccc2c(c1)C(=O)OC2)Nc1c(Cl)cc(Cl)c2ccc(O)cc12 [Example 4-35] | 290 to 291 °C (dec.) |
| COc1cccc(-c2cccc(NC(=O)Nc3c(Cl)cc(Cl)c4ccc(O)cc34)c2)c1 [Example 4-17] | 246 °C (dec.) |
| CC(=O)Oc1ccc2c(Cl)cc(Cl)c(NC(=O)Nc3cccc(-c4ccc(C)c(Cl)c4)c3)c2c1 [Example 3-4] | 260 °C |
| O=C(Nc1cccc(-c2ccc(C(=O)O)cc2)c1)Nc1c(Cl)cc(Cl)c2ccc(O)cc12 [Example 4-11] | 247 °C (dec.) |
| COc1ccccc1NC(=O)Nc1c(Br)cc(Br)c2ccc(O)cc12 [Example 1-15] | 228 to 230 °C |
| O=C(Nc1cccc(Cl)c1)Nc1c(Cl)cc(Cl)c2ccc(O)cc12 [Example 1-1, N-(3-Chlorophenyl)-N′-(2,4-dichloro-7-hydroxy-1-naphthyl)urea] | > 260 °C |
| CCCc1ccc(NC(=O)Nc2c(Cl)cc(Cl)c3ccc(O)cc23)cc1 [Example 4-1, N-(2,4-Dichloro-7-hydroxy-1-naphthyl)-N′-(4-propylphenyl)urea] | 241 °C |
| O=C(Nc1cccc2c1C(=O)c1ccccc1-2)Nc1c(Cl)cc(Cl)c2ccc([O-])cc12.[K+] | 195 °C |
| CC(=O)Oc1ccc2c(Cl)cc(Cl)c(NC(=O)Nc3ccc4c(c3)C(=O)c3ccccc3-4)c2c1 [Example 3-10] | 213 °C (dec.) |
| O=C(Nc1cccc(Oc2ccccc2)c1)Nc1c(Cl)cc(Cl)c2ccc(O)cc12 [Example 4-15] | 226 °C (dec.) |

Target: T1, human VR1 (Homo sapiens, UniProt Q8NER1)
T1 construct: expressed in transfected cells
T1 sequence (Q8NER1 whole entry): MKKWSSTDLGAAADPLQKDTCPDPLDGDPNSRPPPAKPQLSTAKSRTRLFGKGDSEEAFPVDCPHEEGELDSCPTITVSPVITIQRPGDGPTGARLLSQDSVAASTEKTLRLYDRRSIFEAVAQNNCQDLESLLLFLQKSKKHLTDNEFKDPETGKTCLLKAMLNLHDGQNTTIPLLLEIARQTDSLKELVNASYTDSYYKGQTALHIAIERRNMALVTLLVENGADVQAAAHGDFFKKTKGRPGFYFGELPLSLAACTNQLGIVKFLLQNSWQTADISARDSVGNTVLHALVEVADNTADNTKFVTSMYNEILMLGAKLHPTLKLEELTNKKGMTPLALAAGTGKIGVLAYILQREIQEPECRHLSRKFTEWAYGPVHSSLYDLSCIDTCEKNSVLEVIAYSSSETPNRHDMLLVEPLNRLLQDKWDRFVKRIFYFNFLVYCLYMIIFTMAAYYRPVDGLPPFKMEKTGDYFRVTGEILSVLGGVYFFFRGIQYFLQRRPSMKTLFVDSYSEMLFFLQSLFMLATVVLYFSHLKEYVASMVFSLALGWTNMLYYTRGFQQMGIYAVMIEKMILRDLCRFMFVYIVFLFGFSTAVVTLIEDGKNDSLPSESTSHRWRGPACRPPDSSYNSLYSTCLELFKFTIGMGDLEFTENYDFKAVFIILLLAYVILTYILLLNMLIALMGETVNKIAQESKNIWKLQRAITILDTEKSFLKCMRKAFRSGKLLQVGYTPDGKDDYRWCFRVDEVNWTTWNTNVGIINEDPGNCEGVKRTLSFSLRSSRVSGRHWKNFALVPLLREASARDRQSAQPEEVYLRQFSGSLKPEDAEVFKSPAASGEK
Experiment: Capsaicin-induced Ca2+ influx in the human VR1-transfected CHO cell line (Assay 1)
Type: cell-based
Conditions: capsaicin-induced Ca2+ flux; compounds or the salt thereof (e.g., potassium salt); purity about 40 to 90%
From the text: [Measurement of Capsaicin-induced Ca^2+ Influx in the Human VR1-transfected CHO Cell Line] (Assay 1)
(1) Establishment of the human VR1-CHOluc9aeq cell line
Human vanilloid receptor (hVR1) cDNA was cloned from libraries of axotomized dorsal root ganglia (WO2000/29577). The cloned hVR1 cDNA was constructed with pcDNA3 vector and transfected into a CHOluc9aeq cell line. The cell line contains aequorin and CRE-luciferase reporter genes as read-out signals. The transfectants were cloned by limiting dilution in selection medium (DMEM/F12 medium (Gibco BRL) supplemented with 10% FCS, 1.4 mM Sodium pyruvate, 20 mM HEPES, 0.15% Sodium bicarbonate, 100 U/ml penicillin, 100 μ/ml streptomycin, 2 mM glutamine, non-essential amino acids and 2 mg/ml G418). Ca^2+ influx was examined in the capsaicin-stimulated clones. […] The human VR1-CHOluc9aeq cells were maintained in the selection medium and passaged every 3-4 days at 1-2.5×10^5 cells/flask ([…])
(2) Measurement of Ca^2+ influx using FDSS-3000
Human VR1-CHOluc9aeq cells were suspended in a culture medium which is the same as the selection medium except for G418 and seeded at a density of 1,000 cells per well into 384-well plates (black walled clear-base/Nalge Nunc International). Following the culture for 48 hrs the medium was changed to 2 μM Fluo-3 AM (Molecular Probes) and 0.02% Puronic F-127 in assay buffer (Hank's balanced salt solution (HBSS), 17 mM HEPES (pH7.4), 1 mM Probenecid, 0.1% BSA) and the cells were incubated for 60 min at 25° C. After washing twice with assay buffer the cells were incubated with a test compound or vehicle for 20 min at 25° C. Mobilization of cytoplasmic Ca^2+ was measured by FDSS-3000 (λex=488 nm, λem=540 nm/Hamamatsu Photonics) for 60 sec after the stimulation with 10 nM of capsaicin (Nacalai Tesque). Integral R of the fluorescence changes was calculated in the samples treated with a test compound and vehicle respectively. Inhibitory effect of the compound was calculated by a comparison of the integral R values.

| SMILES | IC50 [nM] |
| --- | --- |
| O=C(Nc1ccc(Cl)c(C(F)(F)F)c1)Nc1c(Cl)cc(Cl)c2ccc(O)cc12 [N-[4-chloro-3-(trifluoromethyl)phenyl]-N′-(2,4-dichloro-7-hydroxy-1-naphthyl)urea] | ≤ 10 |
| O=C(Nc1cccc(-c2ccccc2)c1)Nc1c(Cl)ccc2ccc(O)cc12 [N-(1,1′-biphenyl-3-yl)-N′-(2-chloro-7-hydroxy-1-naphthyl)urea] | ≤ 10 |
| O=C(Nc1ccc(F)c(C(F)(F)F)c1)Nc1c(Cl)cc(Cl)c2ccc(O)cc12 [N-(2,4-dichloro-7-hydroxy-1-naphthyl)-N′-[4-fluoro-3-(trifluoromethyl)phenyl]urea] | ≤ 10 |
| O=C(Nc1cccc(Cl)c1)Nc1c(Br)cc(Br)c2ccc(O)cc12 [N-(3-chlorophenyl)-N′-(2,4-dibromo-7-hydroxy-1-naphthyl)urea] | ≤ 10 |
| O=C(Nc1ccc(Cl)c(C(F)(F)F)c1)Nc1c(Cl)ccc2ccc(O)cc12 [N-(2-chloro-7-hydroxy-1-naphthyl)-N′-[4-chloro-3-(trifluoromethyl)phenyl]urea] | ≤ 10 |
| Cc1cc(Cl)c(NC(=O)Nc2ccc(Cl)c(C(F)(F)F)c2)c2cc(O)ccc12 [N-(2-chloro-7-hydroxy-4-methyl-1-naphthyl)-N′-[4-chloro-3-(trifluoromethyl)phenyl]urea] | ≤ 10 |
| O=C(Nc1ccc(Cl)c(C(F)(F)F)c1)Nc1c(Cl)cc(Br)c2ccc(O)cc12 [N-(4bromo-2-chloro-7-hydroxy-1-naphthyl)N′-[4-chloro-3-(trifluoromethyl)phenyl]urea] | ≤ 10 |
| CCOC(=O)c1cccc(NC(=O)Nc2c(Cl)cc(Cl)c3ccc(O)cc23)c1 [ethyl 3-({[(2,4-dichloro-7-hydroxy-1-naphthyl)amino]carbonyl}amino)benzoate] | ≤ 10 |
| Cc1ccc(NC(=O)Nc2ccc(Cl)c(C(F)(F)F)c2)c2cc(O)ccc12 [N-[4-chloro-3-(trifluoromethyl)phenyl]-N′-(7-hydroxy-4-methyl-1-naphthyl)urea] | ≤ 10 |
| O=C(Nc1cccc(-c2ccccc2Cl)c1)Nc1c(Cl)cc(Cl)c2ccc(O)cc12 [N-(2′-chloro-1,1′-biphenyl-3-yl)-N′-(2,4-dichloro-7-hydroxy-1-naphthyl)urea] | ≤ 10 |
| O=C(Nc1ccc(Cl)c(C(F)(F)F)c1)Nc1c(Br)cc(Br)c2ccc(O)cc12 [N-[4-chloro-3-(trifluoromethyl)phenyl]-N′-(2,4-dibromo-7-hydroxy-1-naphthyl)urea] | ≤ 10 |
| O=C(Nc1cccc(-c2ccccc2)c1)Nc1cccc2ccc(O)cc12 [N-(1,1′-biphenyl-3-yl)-N′-(7-hydroxy-1-naphthyl)urea] | ≤ 10 |
| O=C(NCc1ccc(Br)cc1)Nc1c(Cl)ccc2ccc(O)cc12 [N-(4-bromobenzyl)-N′-(2-chloro-7-hydroxy-1-naphthyl)urea] | ≤ 10 |
| O=C(Nc1ccc(Oc2ccccc2)cc1)Nc1cccc2ccc(O)cc12 [N-(7-hydroxy-1-naphthyl)-N′-(4-phenoxyphenyl)urea] | ≤ 10 |
| O=C(Nc1ccc(C(F)(F)F)cc1)Nc1cccc2ccc(O)cc12 [N-(7-hydroxy-1-naphthyl)-N′-[4-(trifluoromethyl)phenyl]urea] | ≤ 10 |
| O=C(Nc1cccc(C(F)(F)F)c1)Nc1c(Cl)cc(Cl)c2ccc(O)cc12 [N-(2,4-dichloro-7-hydroxy-1-naphthyl)-N′-[3-(trifluoromethyl)phenyl]urea] | ≤ 10 |
| O=C(Nc1cccc(Oc2ccccc2)c1)Nc1cccc2ccc(O)cc12 [N-(7-hydroxy-1-naphthyl)-N′-(3-phenoxyphenyl)urea] | ≤ 10 |
| O=C(Nc1ccc2ccccc2c1)Nc1c(Cl)cc(Cl)c2ccc(O)cc12 [N-(2,4-dichloro-7-hydroxy-1-naphthyl)-N′-(2-naphthyl)urea] | ≤ 10 |
| O=C(Nc1ccc(Oc2ccc(Cl)cc2)cc1)Nc1cccc2ccc(O)cc12 [N-[4-(4-chlorophenoxy)phenyl]-N′-(7-hydroxy-1-naphthyl)urea] | ≤ 10 |
